Results on 13 compounds are retold here after paper PMC10004487, “Flavonoids from the Roots of Sophora flavescens and Their Potential Anti-Inflammatory and Antiproliferative Activities” (Molecules, 2023).

Structures can show the parent of a compound that is named as a salt. Where two headings read alike, the source gives them in different places.

For data set [1], the system named is LPS-induced NO production in RAW 264.7 macrophages. As to the kind of experiment: Inhibition of LPS-induced NO production in macrophages (Griess reagent). Format: cell-based, Murine. The note with it: Mus musculus, RAW264.7, read-out: IC50 (50% inhibitory concentration), NO production inhibition. On the procedure: NO is one of the immune effectors used by macrophages to defend our bodies against intracellular pathogens. […] NO production inhibition (%) = [(O.DLPS − O.DDrug)/(O.DLPS − O.DBlank)] × 100%. The determination of IC50 was calculated using probit analysis in SPSS version 21.0.
(§1) Murine macrophages (RAW 264.7) were cultured in Dulbecco’s modified Eagle’s medium (DMEM) supplemented with the addition of 10% fetal bovine serum (FBS) and 1% streptomycin (10,000 μg/mL)-penicillin (10,000 U/mL) at 37 °C in a humidified incubator under 5% CO2. HepG2 cells were cultured at 37 °C under 5% CO2. The optimal fermentation culture medium comprised DMEM, 1% mixed penicillin (10,000 U mL^−1), 1% HEPES (BioFroxx, Hesse, Einhausen), and 10% fetal bovine serum (FBS), as well as streptomycin (SM) (10,000 μg/mL^−1) fluid. In all experiments, cells were left to acclimate for 24 h before any treatments.
Activated macrophage cells could express inducible nitric oxide synthase (iNOS), catalyzing the production of NO from L-arginine. […] Afterward, costimulation for 24 h at 37 °C was carried out in an incubator under 5% CO2. Then, Griess reagents I and II (100 μL) were mixed with cell culture medium (70 μL). Prior to measuring the optical density, plates were incubated at room temperature for 10 min, and the absorbance at 540 nm was measured using a Thermo Fisher Scientific microplate reader. N(G)-monomethyl-L-arginine, monoacetate salt (L-NMMA), and the medium were used as positive and negative controls, respectively.

Data set [2] can be described thus: Cytotoxicity on RAW 264.7 macrophages (MTT cell viability). Format: cell-based, Murine. The note with it: mouse. On the procedure:
The potential cytotoxicity of compounds on RAW 264.7 macrophages cells was determined before executing further studies. Macrophage cells were treated with compounds, and a mitochondria colorimetric (MTT) assay was used to test cell survival.
as §1
To measure cell viability, an MTT assay was performed. […] After washing twice with a PBS buffer, 20 μL of the MTT solution was added to each well, and incubation continued for 4 h. Optical density (O.D) was measured at 490 nm by a microplate reader (Thermo Fisher Scientific, Waltham, MA, USA). The relative cell viability was calculated in contrast to the normal control group.

The subject of the next data set is HepG2 cells. As to the kind of experiment: Antiproliferative MTT assay on HepG2 cell lines. The note with it: read-out: IC50 (50% inhibitory concentration), antiproliferative effect, 24 and 48 h of incubation, mean ± SD of 3 tests. Format: cell-based, Human. On the procedure: Inhibitory rate (%) = [(O.DDrug − O.DBlank)/(O.DControl − O.DBlank)] ×100%. The IC50 values were calculated with probit analysis using software SPSS version 21.0.
as §1
Briefly, the cells were incubated in 96-well microplates (1 × 10^5 per well) and allowed to adhere for 24 h before drug administration. Then, the cell lines were treated with test compounds 1–36 at five concentrations (3.12, 6.25, 12.5, 25, and 50 μM). At 24 and 48 h of incubation, cells were treated with MTT (200 µL, 5.0 mg/mL) and dissolved in the culture medium, for 1 h under at 37 °C under a 5% CO2 humidified atmosphere. The MTT was then removed carefully and resolved with DMSO (150 μL/well). Optical density was recorded using a Thermo Fisher Scientific microplate reader at 490 nm. Cisplatin (CP) and medium were used as positive and negative controls, respectively.
(In general: Tetrazolium assays rely on reduction of a dye to a coloured formazan, in cell work by metabolically active cells.)

Where [3] appears, read: RAW 264.7 pretreated with compound 1 h, then LPS 1 μg/mL for 24 h, Griess, mean ± SD of 3 tests.

`C=C(C)[C@H](CC=C(C)C)Cc1c(O)cc(OC)c2c1O[C@H](c1ccc(O)cc1O)CC2=O` [Compound 13, kurarinone]: in data set [1] (setting [3]), the IC50 amounted to 14.4 ± 0.4 µM. In data set [2], half-maximal cytotoxicity (CC50) was put at 33.8 ± 1 µM.

Turning to `COc1ccc(-c2oc3c(CC=C(C)C)c(O)cc(O)c3c(=O)c2O)cc1O` [Compound 21, 8-(3,3-dimethylallyl)-tamarixetin], the IC50 with HepG2 cells (Homo sapiens) stood at 26.4 ± 0.3 µM.

In the case of `COc1cc(O)c(CC=C(C)C)c2c1C(=O)CC(c1ccc(O)cc1)O2` (stereo not shown) [Compound 2, isoxanthohumol], the IC50 in data set [1] (setting [3]) stood at 8.4 ± 0.7 µM. For the same compound, the CC50 (in general, the concentration at which the toxic effect on the cells reaches its halfway point) in data set [2] was over 50 µM.

For the compound `CC(C)=CCc1c(O)cc(O)c2c1O[C@H](c1ccc(O)cc1)CC2=O` [Compound 1, sophorafiavanone B], the IC50 with HepG2 cells (Homo sapiens) amounted to 34.9 ± 0.3 µM.

In the case of `C=C(C)C(CC=C(C)C)Cc1c(O)c(CC=C(C)C)c(O)c2c1O[C@H](c1ccc(O)cc1O)CC2=O` (stereo partly shown) [Compound 16, kushenol B], the IC50 in the data set with HepG2 cells (Homo sapiens) was found to be 30.8 ± 1.1 µM.

With `CC(C)=CCc1c(O)c(CC=C(C)C)c2c(c1O)C(=O)C[C@@H](c1ccc(O)cc1O)O2` [Compound 15, kushenol E], the IC50 in data set [1] (setting [3]) is 9.3 ± 0.7 µM. Further, the CC50 in data set [2] is 18.8 ± 0.3 µM.

Turning to `CC(C)=CCc1c(O)cc(O)c2c(=O)c(O)c(-c3ccc(O)cc3)oc12` [Compound 19, noranhyoicaritin], the figures for the IC50 (in data set [1] (setting [3]); in the data set with HepG2 cells (Homo sapiens)) were 12.4 ± 0.9 µM and 41.4 ± 0.6 µM, respectively. In addition, the CC50 in data set [2] is over 50 µM.

With `C=C(C)[C@H](CC=C(C)C)Cc1c(O)cc(OC)c2c1O[C@H](c1ccc(O)cc1O)[C@@H](O)C2=O` [Compound 29, kushenol I], the IC50 in data set [1] (setting [3]) was 7.2 ± 0.6 µM. Moreover, the CC50 in data set [2] stood at 20.6 ± 1.1 µM.

For `CC(C)=CCc1c(O)cc(O)c2c1O[C@H](c1ccc(O)cc1O)CC2=O` [Compound 5, leachianone G], in the data set on HepG2 cells (Homo sapiens), the IC50 was 37.6 ± 0.7 µM.

Consider `N.N.[Cl][Pt][Cl]` [Cisplatin, reference compound], for which, in the data set on HepG2 cells, the IC50 stood at 24.5 ± 0.8 µM.

Regarding xanthogalenol [Compound 34], the IC50 in the data set with HepG2 cells turned out to be 48.6 ± 0.8 µM.

Take `[H]/N=C(/NC)NCCC[C@H](N)C(=O)O` [L-NMMA, N(G)-monomethyl-L-arginine, monoacetate salt, reference compound]: in data set [1], the IC50 is 21.8 ± 0.9 µM. In data set [2] (RAW 264.7 macrophages, MTT, compound 1 h then LPS 1 μg/mL 24 h, mean ± SD of 3 tests), the CC50 is over 50 µM.

Consider `C=C(C)C(CC=C(C)C)Cc1c(O)cc(O)c2c(=O)c(O)c(-c3ccc(O)cc3)oc12` (stereo not shown) [Compound 22, 8-lavandulylkaempferol], for which the IC50 was found to be 5.7 ± 0.4 µM in data set [1] (setting [3]) and 0.46 ± 0.1 µM in the data set on HepG2 cells (Homo sapiens). Further, half-maximal cytotoxicity in data set [2] (CC50) was put at 13.8 ± 0.6 µM.
